Results: patent US11680086B2, “Lipopeptide for potently inhibiting HIV, derivative thereof, pharmaceutical composition thereof and use thereof” (Institute of Pathogen Biology, Chinese Academy of Medical …, priority 2017, dated 2023)
Peptide text beside a SMILES is read from it. * marks the point of attachment. X1 = Cc1c(C)c2c(c(C)c1OC(=O)CCC(=O)*)CCC(C)(CCCC(C)CCCC(C)CCCC(C)C)O2; Stearoyl = CCCCCCCCCCCCCCCCCC(=O)*; Palmitoyl = CCCCCCCCCCCCCCCC(=O)*

Tests used:
HIV-1 = conditions: cell fusion, entry and replication; compared with parent or control peptide
Text: HIV-1 pseudovirus-mediated cell entry inhibition assay: basic steps included: (1) Preparation of HIV-1 pseudovirus: the 293T cells were co-transfected with a plasmid expressing the envelope protein (Env) of HIV-1 strain NL4-3 (i.e., a recombinant expression plasmid obtained by inserting the gene encoding the envelope protein (ENV) of the D36G mutant of the HIV-1 strain NL4-3 in the Table 2 of the Reference 14 listed in the Background Art into the vector pcDNA3.1(−)) and the HIV-1 backbone plasmid pSG3Δenv (provided by the AIDS Reagent Program of National Institutes of Health (NIH), catalog number: 11051) by using a cell transfection reagent, incubated in a cell incubator of 37° C. and 5% CO2 for 6 hours, and then the medium was changed, and the cells were further incubated for 48 hours. The cell culture supernatant containing pseudovirus particles was pipetted and filtered with a 0.45 μm filter to collect the supernatant, then 20% fetal bovine serum (FBS) was added thereto, the final solution was transferred to a polypropylene tube, and stored at −80° C. for ready for use or directly subjected to virus titration. (2) Titration of HIV-1 pseudovirus: the viruses were diluted by 5 folds in a 96-well plate, and 4 replicate wells with 8 gradients were set to a final volume of 100 microliters. The TZM-b1 cells were trypsinized and counted, and the cells were diluted to 1×10^5 cells/ml with DMEM complete medium; 100 μl of cells dilution (containing 15 μg/ml DEAE-dextran) per well were added and cultured at 37° C. and 5% CO2 for 48 hours. The 96-well plate was then taken from the cell culture incubator. The supernatant was discarded from the wells. To each well, 30 μl of a cell lysate was added, and after 10 minutes, 100 μl of a luciferase detection reagent was added. 100 μl of liquid was pipetted from each well and added to a corresponding 96-well white plate, and the luminescence values were read by a microplate photometer. The virus titer was calculated by the Reed-Muench method. […]

[1] = tested on: NL4-3 pseudovirus carrying T-20 resistance mutation site of NHR; assay: inhibition of T-20 resistant strains; format: cell-based, HIV-1; conditions: strains with single or double mutations
[2] = tested on: HXB2-mediated cell fusion (HL2/3 effector cells, TZM-b1 target cells); format: cell-based, HIV-1; conditions: HXB2-mediated cell fusion
Protocol: HIV-1 mediated cell fusion inhibition assay: the effector cells (HL2/3 cells) and target cells (TZM-b1 cells) were provided by the AIDS Reagent Program of National Institutes of Health (NIH) (catalog numbers: 1294 and 8129, respectively). The both cells were adherent cells and were cultured in a DMEM cell culture medium containing ampicillin/streptomycin double antibiotics and 10% fetal bovine serum (FBS). The TZM-b1 was first added to a 96-well cell culture plate (1×10^4 cells/well), and cultured overnight at 37° C. and 5% CO2. The test substance was diluted with the DMEM cell culture medium by 3 folds and mixed with HL2/3 effector cells (3×10^4 cells/well), then added to the TZM-b1 target cells, and further cultured for 6 hours to fully fuse. The activity of luciferase (relative fluorescence units, RLU) was then determined using a luciferase reporter gene kit from Promega company according to the instructions. The inhibition rate of each sample at each concentration was calculated, and the half effective inhibitory concentration (IC50 value) was calculated using GraphPad Prism Software 2.01.

HIV-1 strain JRCSF = format: cell-based
Protocol: Inhibition rate (%) and IC50 value were calculated.

[3] = tested on: HIV-1 strain NL4-3 pseudovirus (D36G mutant); format: cell-based
Protocol: The supernatant was discarded from the wells. […] Inhibition rate (%) and IC50 value were calculated.

SMILES | antiviral activity (in words) (HIV-1) | inhibitory activity against T-20 resistant strains (in words) [1] | inhibitory activity further improved, folds ([2]; relative to LP-50) | inhibitory activity as folds of that of T-20 ([2]; relative to T-20) [folds] | inhibitory activity as folds of that of T-20 (HIV-1 strain JRCSF; JRCSF replication, relative to T-20) [folds] | inhibitory activity further improved, folds (HIV-1 strain JRCSF; replicative JRCSF virus, relative to LP-50) [folds] | inhibitory activity as folds of that of T-20 ([3]; NL4-3 pseudovirus entry, relative to T-20) [folds] | inhibitory activity further improved, folds ([3]; NL4-3 pseudovirus, relative to LP-50)
CCCCCCCCCCCCCCCC(=O)NCCCC[C@H](NC(=O)[C@H](CCC(=O)O)NC(=O)[C@H](CC(C)C)NC(=O)[C@H](CCCCN)NC(=O)[C@H](CCCCN)NC(=O)[C@H](CC(C)C)NC(=O)[C@H](CCC(=O)O)NC(=O)[C@H](CCC(=O)O)NC(=O)[C@H](CCC(=O)O)NC(=O)[C@H](CC(N)=O)NC(=O)[C@H](CCCCN)NC(=O)[C@H](CCCCN)NC(=O)[C@H](CCC(N)=O)NC(=O)[C@H](CCC(N)=O)NC(=O)[C@H](CCC(=O)O)NC(=O)[C@H](CCC(=O)O)NC(=O)[C@H](C)NC(=O)[C@H](CCCCN)NC(=O)[C@H](CCCCN)NC(=O)[C@H](CC(C)C)NC(=O)[C@H](CC(C)C)NC(=O)[C@H](CCC(=O)O)NC(=O)[C@H](CCC(=O)O)NC(=O)[C@@H](NC(=O)[C@H](CC(N)=O)NC(=O)[C@H](C)NC(=O)[C@H](CCC(=O)O)NC(=O)[C@H](CC(C)C)NC(C)=O)[C@@H](C)CC)C(N)=O [LP-51] (Ac-LEANIEELLKKAEEQQKKNEEELKKLEK(Palmitoyl)-NH2) | comparable to that of the LP-50 | thousands to tens of thousands of times better than that of the LP-40 |  |  |  |  |  | 
CCCCCCCCCCCCCCCCCC(=O)NCCCC[C@H](NC(=O)[C@H](CCC(=O)O)NC(=O)[C@H](CC(C)C)NC(=O)[C@H](CCCCN)NC(=O)[C@H](CCCCN)NC(=O)[C@H](CC(C)C)NC(=O)[C@H](CCC(=O)O)NC(=O)[C@H](CCC(=O)O)NC(=O)[C@H](CCC(=O)O)NC(=O)[C@H](CC(N)=O)NC(=O)[C@H](CCCCN)NC(=O)[C@H](CCCCN)NC(=O)[C@H](CCC(N)=O)NC(=O)[C@H](CCC(N)=O)NC(=O)[C@H](CCC(=O)O)NC(=O)[C@H](CCC(=O)O)NC(=O)[C@H](C)NC(=O)[C@H](CCCCN)NC(=O)[C@H](CCCCN)NC(=O)[C@H](CC(C)C)NC(=O)[C@H](CC(C)C)NC(=O)[C@H](CCC(=O)O)NC(=O)[C@H](CCC(=O)O)NC(=O)[C@@H](NC(C)=O)[C@@H](C)CC)C(N)=O [LP-90] (Ac-IEELLKKAEEQQKKNEEELKKLEK(Stearoyl)-NH2) | potent antiviral activity | much lower active against T-20 resistant mutant strains than the LP-52 and LP-80 |  |  |  |  |  | 
CC[C@H](C)[C@H](NC(=O)[C@H](CCCCN)NC(=O)[C@H](CCC(N)=O)NC(=O)[C@H](CCC(=O)O)NC(=O)[C@H](Cc1c[nH]c2ccccc12)NC(C)=O)C(=O)N[C@@H](CCC(=O)O)C(=O)N[C@@H](CCC(=O)O)C(=O)N[C@@H](CC(C)C)C(=O)N[C@@H](CC(C)C)C(=O)N[C@@H](CCCCN)C(=O)N[C@@H](CCCCN)C(=O)N[C@@H](C)C(=O)N[C@@H](CCC(=O)O)C(=O)N[C@@H](CCC(=O)O)C(=O)N[C@@H](CCC(N)=O)C(=O)N[C@@H](CCC(N)=O)C(=O)N[C@@H](CCCCN)C(=O)N[C@@H](CCCCN)C(=O)N[C@@H](CC(N)=O)C(=O)N[C@@H](CCC(=O)O)C(=O)N[C@@H](CCC(=O)O)C(=O)N[C@@H](CCC(=O)O)C(=O)N[C@@H](CC(C)C)C(=O)N[C@@H](CCCCN)C(=O)N[C@@H](CCCCN)C(=O)N[C@@H](CC(C)C)C(=O)N[C@@H](CCC(=O)O)C(=O)N[C@@H](CCCCNC(=O)CCC(=O)Oc1c(C)c(C)c2c(c1C)CCC(C)(CCCC(C)CCCC(C)CCCC(C)C)O2)C(N)=O (stereo partly shown) [LP-85] (Ac-WEQKIEELLKKAEEQQKKNEEELKKLEK(X1)-NH2) | strong antiviral effects | thousands to tens of thousands of times better than that of the LP-40 |  |  |  |  |  | 
CCCCCCCCCCCCCCCC(=O)NCCCC[C@H](NC(=O)[C@H](CCC(=O)O)NC(=O)[C@H](CC(C)C)NC(=O)[C@H](CCCCN)NC(=O)[C@H](CCCCN)NC(=O)[C@H](CC(C)C)NC(=O)[C@H](CCC(=O)O)NC(=O)[C@H](CCC(=O)O)NC(=O)[C@H](CCC(=O)O)NC(=O)[C@H](CC(N)=O)NC(=O)[C@H](CCCCN)NC(=O)[C@H](CCCCN)NC(=O)[C@H](CCC(N)=O)NC(=O)[C@H](CCC(N)=O)NC(=O)[C@H](CCC(=O)O)NC(=O)[C@H](CCC(=O)O)NC(=O)[C@H](C)NC(=O)[C@H](CCCCN)NC(=O)[C@H](CCCCN)NC(=O)[C@H](CC(C)C)NC(=O)[C@H](CC(C)C)NC(=O)[C@H](CCC(=O)O)NC(=O)[C@H](CCC(=O)O)NC(=O)[C@@H](NC(=O)[C@H](CCCCN)NC(=O)[C@H](CCC(N)=O)NC(=O)[C@H](CCC(=O)O)NC(=O)[C@H](Cc1c[nH]c2ccccc12)NC(C)=O)[C@@H](C)CC)C(N)=O [LP-52] (Ac-WEQKIEELLKKAEEQQKKNEEELKKLEK(Palmitoyl)-NH2) |  | thousands to tens of thousands of times better than that of the LP-40 | about 2 folds | 1859 | 1038 | ~5 | 2353 | about 2 folds
